Laboratory results: US20240368668A1, “SUBSTRATES AND BIOMARKERS OF ADAMTS7” (The Broad Institute, Inc., priority 2021, published 2024)
Square brackets hold non-standard residues; d marks the D form. Ends that are not written are not given here.

What follows are substances tested on mouse ADAMTS7 (assay: TMT10 TAILS N-terminomics, HUVEC experiment (process replicates, trypsin/AspN digest)). Conditions: HUVEC TAILS HC; log fold change of N-terminal peptide, Ad-mADAMTS7 WT over EQ.
Format: cell-based, human
In short: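 Full-length mouse ADAMTS7 (WT or E373Q mutant, C-terminal 3xFLAG) or luciferase was transduced via adenovirus, 50 MOI, into HCA-SMC (SMC1, SMC2) or HUVEC. SMC1: pooled media, technical triplicates 400 ug; SMC2: process triplicates 300 ug; HUVEC: process triplicates 200 ug, bFGF2 10 ng/ml.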

Compared with “ECM1_108 (QEAVPLQK; listed as Homo sapiens)”, “EFEMP1_125_ (VAGPEMQTGR; listed as Homo sapiens)” is higher in logFC.mWT.over.mEQ: 2.12 for the first, 2.45 for the second.

Going from “ERAP2_718 (ISENLKR; listed as Homo sapiens)” to “EWSR1_87 (YSQPVQGYGTGAY; listed as Homo sapiens)”, the logFC.mWT.over.mEQ falls from 4.41 to 1.15.

First: FN1_34 ([code q]QMVQPQSPVAVSQSKPGCY; not fully specified (residue 3); listed as Homo sapiens)
Second: FN1_35 ([code q]MVQPQSPVAVSQSKPGCY; not fully specified (residue 2); listed as Homo sapiens)
The logFC.mWT.over.mEQ of the first is lower: 1.43 for the first, 2.58 for the second.

Going from “FN1_293 (VYQPQPHPQPPPYGHCVT; listed as Homo sapiens)” to “FN1_607 (SSSGPVEVFIT; listed as Homo sapiens)”, the logFC.mWT.over.mEQ rises from 1.24 to 2.71.

First: FN1_1144 (TPGVEYVYTIQVLR; listed as Homo sapiens)
Second: FN1_1780 (LQGLRPGSEYTVSVVALH; listed as Homo sapiens)
The logFC.mWT.over.mEQ of the first is lower: 1.62 for the first, 2.27 for the second.

First: FN1_1805 (LIGTQSTAIPAPT; listed as Homo sapiens)
Second: FN1_2113 (FVTHPGY; listed as Homo sapiens)
The logFC.mWT.over.mEQ of the first is lower: 1.42 for the first, 1.67 for the second.

First: FSTL1_290 (LQKHQETA; listed as Homo sapiens)
Second: LOX_125 (FQAGYSTSR; listed as Homo sapiens)
The logFC.mWT.over.mEQ of the first is lower: 2.57 for the first, 3.58 for the second.

Same assay, conditions: HUVEC experiment; log fold change, mouse ADAMTS7 WT over EQ

For “FN1_607 (SSSGPVEVFIT; listed as Homo sapiens)”, the “HUVEC logFC.mWT.over.mEQ” value was 2.04.
